Reference: the NIST ThermoML archive (doi:10.1016/j.jct.2008.10.010)

Test: molar heat capacity at constant pressure; xn = mol fraction of the nth substance listed
Details: 101.3 kPa, Liquid, Small sample (50 mg) DSC

CCC(C)(C)O [2-methylbutan-2-ol] + CCCCCCC
Details	molar heat capacity at constant pressure [J/K/mol]
345.14 K, x1 = 0.0249	244.12
345.14 K, x1 = 0.0494	246.22
345.14 K, x1 = 0.1	253.28
345.14 K, x1 = 0.1547	260.94
345.14 K, x1 = 0.1999	266.5
345.14 K, x1 = 0.2993	275.63
345.14 K, x1 = 0.4051	282.19
345.14 K, x1 = 0.4986	286.41
345.14 K, x1 = 0.5981	289.46
345.14 K, x1 = 0.7015	291.51
345.14 K, x1 = 0.8023	291.94
345.14 K, x1 = 0.9139	291.66
345.14 K, x1 = 0.9609	290.76
346.15 K, x1 = 0.0061	244.11
346.15 K, x1 = 0.0249	244.51
346.15 K, x1 = 0.0494	246.51
346.15 K, x1 = 0.1	253.41
346.15 K, x1 = 0.1547	261
346.15 K, x1 = 0.1999	266.61
346.15 K, x1 = 0.2993	275.72
346.15 K, x1 = 0.4051	282.35
346.15 K, x1 = 0.4986	286.63
346.15 K, x1 = 0.5981	289.78
346.15 K, x1 = 0.7015	291.88
346.15 K, x1 = 0.8023	292.49
346.15 K, x1 = 0.9139	292.09
346.15 K, x1 = 0.9609	291.29
347.13 K, x1 = 0.0494	246.82
347.15 K, x1 = 0.9139	292.63
347.16 K, x1 = 0.0061	244.48
347.16 K, x1 = 0.0249	244.81
347.16 K, x1 = 0.1	253.4
347.16 K, x1 = 0.1547	261.01
347.16 K, x1 = 0.1999	266.57
347.16 K, x1 = 0.2993	275.89
347.16 K, x1 = 0.4051	282.48
347.16 K, x1 = 0.4986	286.83
347.16 K, x1 = 0.5981	290.05
347.16 K, x1 = 0.7015	292.26
347.16 K, x1 = 0.8023	292.88
347.16 K, x1 = 0.9609	291.82
348.14 K, x1 = 0.0061	244.95
348.14 K, x1 = 0.0249	245.23
348.14 K, x1 = 0.0494	247.05
348.14 K, x1 = 0.1	253.5
348.14 K, x1 = 0.2993	275.95
348.14 K, x1 = 0.4051	282.77
348.14 K, x1 = 0.4986	287.07
348.14 K, x1 = 0.5981	290.42
348.14 K, x1 = 0.7015	292.68
348.14 K, x1 = 0.8023	293.3
348.14 K, x1 = 0.9139	293.11
348.14 K, x1 = 0.9609	292.28
348.16 K, x1 = 0.1547	261.02
348.16 K, x1 = 0.1999	266.63
349.15 K, x1 = 0.0061	245.31
349.15 K, x1 = 0.0249	245.69
349.15 K, x1 = 0.0494	247.42
349.15 K, x1 = 0.1	253.6
349.15 K, x1 = 0.1547	261.07
349.15 K, x1 = 0.1999	266.66
349.15 K, x1 = 0.2993	276.06
349.15 K, x1 = 0.4051	282.91
349.15 K, x1 = 0.4986	287.38
349.15 K, x1 = 0.5981	290.79
349.15 K, x1 = 0.7015	293.13
349.15 K, x1 = 0.8023	293.78
349.15 K, x1 = 0.9139	293.7
349.15 K, x1 = 0.9609	292.9
350.15 K, x1 = 0.0061	245.7
350.15 K, x1 = 0.0494	247.73
350.15 K, x1 = 0.1999	266.71
350.15 K, x1 = 0.4986	287.48
350.15 K, x1 = 0.5981	290.98
350.15 K, x1 = 0.7015	293.35
350.15 K, x1 = 0.8023	294.18
350.15 K, x1 = 0.9139	294.04
350.15 K, x1 = 0.9609	293.31
350.16 K, x1 = 0.0249	245.9
350.16 K, x1 = 0.1	253.7
350.16 K, x1 = 0.1547	261.07
350.16 K, x1 = 0.2993	276.06
350.16 K, x1 = 0.4051	283.01
351.14 K, x1 = 0.0061	246.16
351.14 K, x1 = 0.0249	246.29
351.14 K, x1 = 0.0494	247.89
351.14 K, x1 = 0.1	253.68
351.14 K, x1 = 0.1547	261.02
351.14 K, x1 = 0.1999	266.6
351.14 K, x1 = 0.4051	283
351.14 K, x1 = 0.4986	287.61
351.14 K, x1 = 0.5981	291.23
351.14 K, x1 = 0.7015	293.67
351.14 K, x1 = 0.8023	294.44
351.14 K, x1 = 0.9139	294.48
351.14 K, x1 = 0.9609	293.76
351.16 K, x1 = 0.2993	276.1
352.15 K, x1 = 0.0061	246.53
352.15 K, x1 = 0.0249	246.7
352.15 K, x1 = 0.0494	248.24
352.15 K, x1 = 0.1	253.93
352.15 K, x1 = 0.1547	261.06
352.15 K, x1 = 0.1999	266.66
352.15 K, x1 = 0.2993	276.22
352.15 K, x1 = 0.4051	283.15
352.15 K, x1 = 0.4986	287.82
352.15 K, x1 = 0.5981	291.44
352.15 K, x1 = 0.7015	293.88
352.15 K, x1 = 0.8023	294.82
352.15 K, x1 = 0.9139	294.82
352.15 K, x1 = 0.9609	294.14
353.15 K, x1 = 0.0061	246.79
353.15 K, x1 = 0.0249	247.03
353.15 K, x1 = 0.0494	248.53
353.15 K, x1 = 0.1	253.91
353.15 K, x1 = 0.1547	260.99
353.15 K, x1 = 0.1999	266.57
353.15 K, x1 = 0.2993	276.2
353.15 K, x1 = 0.4051	283.18
353.15 K, x1 = 0.4986	287.86
353.15 K, x1 = 0.5981	291.63
353.15 K, x1 = 0.7015	294.17
353.15 K, x1 = 0.8023	295.16
353.15 K, x1 = 0.9139	295.27
353.15 K, x1 = 0.9609	294.55
